The target in assay [1] is T1, Tyrosinase (Agaricus bisporus, UniProt O42713).
T1 sequence (O42713 whole entry): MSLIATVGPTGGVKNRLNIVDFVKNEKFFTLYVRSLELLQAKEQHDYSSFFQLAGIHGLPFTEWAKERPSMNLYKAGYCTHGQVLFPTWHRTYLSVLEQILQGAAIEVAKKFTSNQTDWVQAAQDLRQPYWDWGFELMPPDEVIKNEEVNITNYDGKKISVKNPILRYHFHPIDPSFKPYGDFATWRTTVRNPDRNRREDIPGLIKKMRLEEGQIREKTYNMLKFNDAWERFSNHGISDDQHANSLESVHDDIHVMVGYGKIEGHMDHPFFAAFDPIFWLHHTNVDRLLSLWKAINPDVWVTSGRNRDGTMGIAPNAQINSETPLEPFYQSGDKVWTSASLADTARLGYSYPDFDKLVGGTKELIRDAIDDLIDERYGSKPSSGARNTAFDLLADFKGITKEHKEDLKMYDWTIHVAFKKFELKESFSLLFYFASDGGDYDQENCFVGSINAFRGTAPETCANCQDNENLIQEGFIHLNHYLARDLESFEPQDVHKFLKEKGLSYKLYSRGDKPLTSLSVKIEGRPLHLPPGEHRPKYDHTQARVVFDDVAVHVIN
Kind of assay: Inhibition of mushroom tyrosinase using L-tyrosine as substrate pretreated for 5 mins followed by substrate addition measured over 30 mins by spectrophotometric method.

The target of assay [2] is T1, Tyrosinase. In words: Inhibition of mushroom tyrosinase using L-DOPA as substrate measured at 1 min interval by spectrophotometric method.
For assay [3], the target named is T1, Tyrosinase. In words: Inhibition of mushroom tyrosinase.

pIC50: −log10 of the molar value.

In general, pIC50 refers to the negative decadic logarithm of the IC50, by convention in mol/L. Consider `C[C@@H]1O[C@@H](OC[C@H]2O[C@@H](Oc3c(-c4ccc(O)c(O)c4)oc4cc(O)cc(O)c4c3=O)[C@H](O)[C@@H](O)[C@@H]2O)[C@H](O)[C@H](O)[C@H]1O` [RUTIN], for which the negative-log IC50 (pIC50) in assay [1] was 3.89; in assay [2], 4.15.

`C[C@@H]1O[C@@H](Oc2c(-c3ccc(O)c(O)c3)oc3cc(O)cc(O)c3c2=O)[C@H](O)[C@H](O)[C@H]1O` [QUERCITRIN]: the figures for the negative logarithm of the IC50 (pIC50) in assay [1] and in assay [3] were 3.82 and 4.00, respectively.

For the compound `OC[C@H]1O[C@@H](Oc2c(O)cc(O)cc2O)[C@H](O)[C@@H](O)[C@@H]1O`, the negative-log IC50 (pIC50) in assay [1] is 3.39.

As for `O=c1c(O)c(-c2ccc(O)c(O)c2)oc2cc(O)cc(O)c12` [QUERCETIN], the negative-log IC50 (pIC50) in assay [1] is 3.62.

Take `CC(=O)O[C@@H]1[C@@H](O)[C@@H](OC(C)=O)[C@H](Oc2c(-c3cc(O)c(O)c(O)c3)oc3cc(O)cc(O)c3c2=O)O[C@H]1C`: in assay [1], the pIC50 is 3.28.

On to `COc1c(O)cc(-c2oc3cc(O)cc(O)c3c(=O)c2O[C@@H]2O[C@@H](C)[C@H](OC(C)=O)[C@@H](O)[C@H]2O)cc1O`, for which the negative-log IC50 (pIC50) in assay [1] is 3.72.

Take `COc1c(O)cc(-c2oc3cc(O)cc(O)c3c(=O)c2O[C@@H]2O[C@@H](C)[C@H](O)[C@@H](O)[C@H]2O)cc1O`: the negative logarithm of the IC50 (pIC50) in assay [1] is 3.51.

In the case of `C[C@@H]1O[C@@H](Oc2c(-c3cc(O)c(O)c(O)c3)oc3cc(O)cc(O)c3c2=O)[C@H](O)[C@H](O)[C@H]1O`, the pIC50 in assay [1] was 3.92; in assay [3], 3.49.

Consider `CC(=O)O[C@@H]1[C@@H](OC(C)=O)[C@@H](O)[C@H](Oc2c(-c3cc(O)c(O)c(O)c3)oc3cc(O)cc(O)c3c2=O)O[C@H]1C`, for which the pIC50 in assay [1] is 3.74.

With `CC(=O)O[C@@H]1[C@@H](O)[C@@H](O)[C@H](Oc2c(-c3cc(O)c(O)c(O)c3)oc3cc(O)cc(O)c3c2=O)O[C@H]1C`, the pIC50 in assay [1] was 3.55.

For the origin of these results see ChEMBL document CHEMBL4130610, “Isolation of Flavonoids and Flavonoid Glycosides from Myrsine africana and Their Inhibitory Activities against Mushroom Tyrosinase” (J Nat Prod, 2018).
